In patent publication EP1131089B1, “STABLE AQUEOUS INSULIN PREPARATIONS WITHOUT PHENOL AND CRESOL” (Novo Nordisk A/S, priority 1998, dated 2000):

Experiments:
[1] = system: human insulin; experiment: Physical stability of insulin solution with stabiliser, visual inspection for precipitation on storage at 5 °C; assay type: physicochemical; conditions: 0.5 Zn2+/insulin, NaCl 15 mM, glycylglycine 7 mM, tween 20 0.01 %, pH 7.5
Description: (§1) 27.5 ml of a 21 mM insulin stock solution was made by dissolving 3.707 g zinc free human insulin in 14 ml water and adding 2888 µl of 0.1 M ZnCl2 and 7 ml water before adjusting pH to 7.5 by 0.2 M NaOH and finally adding water to 27.5 ml, calculating the specific volume of insulin as 0.7 µl/mg. The stock solution was filtrated. A preparation of 3.5 ml 15 mM insulin was then made by adding 23 µl 2.3 M stabiliser in ethanol, 49 µl 0.5 M glycylglycine and 35 µl 1 % Tween 20 and water to 3.5 ml. The solution was thereafter diluted with medium containing sodium chloride 15 mM, glycylglycine 7 mM, Tween 20 0.01 %, pH 7.5 to 12, 9, 6, 3 and 0.6 mM insulin and stored at 5 °C for visual inspection. The reference solution was made by the same way but without adding a stabiliser. The chemical stability of the insulin solutions were followed at 37 °C for two concentrations, 3 and 15 mM, by determination of covalent insulin polymer by size exclusion chromatography. The analysis of insulin polymer was performed on Waters PROTEIN PAK 125 (250 x 8 mm) with an eluent containing 2.5 M acetic acid, 4 mM L-arginine and 20 %(V/V) acetonitrile at a flow rate of 1 ml/min. and ambient temperature. Detection was performed with a tunable absorbance detector (Waters 486) at 276 nm. Injection volume were […] for 3 and 15 mM insulin solutions, respectively.
(§2) 3.26 g human insulin (0.4 equivalent Zn^2+ per insulin) was dispersed in water in 18 ml water on icebath and added 490 µl 0.5 M glycylglycine and 1628 µl sodium hydroxide (3.1 equivalent) and stirred slowly overnight at 5 °C. 613 µl 0.1 M zinc chloride (0.1 equivalent of zinc) was then added the solution, pH adjusted to 7.5 by 410 µl 1 M hydrochloric acid (0.8 equivalent of chloride) and the volume adjusted to 25 ml by water. Finally the stock solution of 21 mM insulin was filtrated. 3.57 ml of the stock solution was added 50 µl 1 % tween 20, 750 µl 0.1 M stabiliser and 630 µl water to obtain 5 ml 15 mM insulin formulation. Finally the preparation was diluted with medium containing sodium chloride, glycylglycine and detergent to obtain 12, 9, 6, and 3 mM of human insulin and stored at 5 °C for visual inspection. The chemical stability of 3 and 15 mM insulin solutions were followed at 37 °C by determination of covalent insulin polymer by size exclusion chromatography.

[2] = system: human insulin; experiment: Chemical stability at 37 °C, covalent insulin polymer determined by size exclusion chromatography; assay type: physicochemical; conditions: stabiliser equimolar to insulin, 0.5 Zn2+/insulin, NaCl 15 mM, glycylglycine 7 mM, tween 20 0.01 %, pH 7.5
Description: as §1, §2

[3] = example 1, stabiliser equimolar to insulin
[4] = example 2, stabiliser equimolar to insulin

Physical stability of solution at 4 weeks and 5°C Maximal insulin concentration at which the solution was without precipitation up to 15 mM (3, 6, 9, 12, 15mM) [1, 3]	Chemical stability at 37°C (% polymer / week) Insulin solution of 3 mM ([2]; example 1, 3 mM insulin)	Chemical stability at 37°C (% polymer / week) Insulin solution of 15 mM ([2]; example 1, 15 mM insulin)	Physical stability of solution at 4 weeks and 5°C Maximal insulin concentration at which the solution was without precipitation up to 15 mM (3, 6, 9, 12, 15mM) [1, 4]	Chemical stability at 37°C (% polymer / week) Insulin solution of 3 mM ([2]; example 2, 3 mM insulin)	Chemical stability at 37°C (% polymer / week) Insulin solution of 15 mM ([2]; example 2, 15 mM insulin)	Compound
12 mM	0.49 % polymer / week	0.61 % polymer / week	–	–	–	CC1C(O)CC2CC1C2(C)C (single isomer, unassigned; (+)) [(+)-isopinocampheol]
15 mM	0.53 % polymer / week	0.56 % polymer / week	–	–	–	CC1C(O)CC2CC1C2(C)C (single isomer, unassigned; (-)) [(-)-isopinocampheol]
15 mM	0.64 % polymer / week	0.95 % polymer / week	–	–	–	CC1(C)[C@H]2CC[C@H](CO)[C@@H]1C2 [(-)-trans-myrtanol]
–	–	–	9 mM	0.59 % polymer / week	0.77 % polymer / week	Nc1ncnc2nc[nH]c12 [adenine]
–	–	–	15 mM	0.58 % polymer / week	0.71 % polymer / week	c1ncc2[nH]cnc2n1 [purine]

Second part, the compound before the results:

Compound	Physical stability of solution at 4 weeks and 5°C Maximal insulin concentration at which the solution was without precipitation up to 15 mM (3, 6, 9, 12, 15mM) [1, 3]	Chemical stability at 37°C (% polymer / week) Insulin solution of 3 mM ([2]; example 1, 3 mM insulin)	Chemical stability at 37°C (% polymer / week) Insulin solution of 15 mM ([2]; example 1, 15 mM insulin)	Physical stability of solution at 4 weeks and 5°C Maximal insulin concentration at which the solution was without precipitation up to 15 mM (3, 6, 9, 12, 15mM) [1, 4]	Chemical stability at 37°C (% polymer / week) Insulin solution of 3 mM ([2]; example 2, 3 mM insulin)	Chemical stability at 37°C (% polymer / week) Insulin solution of 15 mM ([2]; example 2, 15 mM insulin)
CC1(C)C2CCC1(C)C(O)C2 (single isomer, unassigned; (+)) [(+)-borneol]	9 mM	0.47 % polymer / week	0.61 % polymer / week	–	–	–
CC1(C)C2CCC1(C)C(O)C2 (single isomer, unassigned; (-)) [(-)-borneol]	9 mM	0.43 % polymer / week	0.47 % polymer / week	–	–	–
CC1(C)[C@H]2CC[C@](C)(C2)[C@H]1O [(+)-fenchol]	15 mM	0.50 % polymer / week	0.97 % polymer / week	–	–	–
Oc1ccccc1 [phenol]	15 mM	0.37 % polymer / week	0.39 % polymer / week	15 mM	0.32 % polymer / week	0.29 % polymer / week
